Tests used:
Experiment in all cases: Gαq-mediated intracellular calcium mobilization
[1] = target: T1, human 5-HT2C (INI) receptor (Homo sapiens, UniProt P28335); conditions: for Emax: HEK293, read-out: 5-HT2C Emax, percentage of maximal activation by 5-HT, or activation at 10 μM for NA; for agonism at the 5-HT2C receptor (in words): calcium flux, HEK-293
T1 sequence (P28335 33-458): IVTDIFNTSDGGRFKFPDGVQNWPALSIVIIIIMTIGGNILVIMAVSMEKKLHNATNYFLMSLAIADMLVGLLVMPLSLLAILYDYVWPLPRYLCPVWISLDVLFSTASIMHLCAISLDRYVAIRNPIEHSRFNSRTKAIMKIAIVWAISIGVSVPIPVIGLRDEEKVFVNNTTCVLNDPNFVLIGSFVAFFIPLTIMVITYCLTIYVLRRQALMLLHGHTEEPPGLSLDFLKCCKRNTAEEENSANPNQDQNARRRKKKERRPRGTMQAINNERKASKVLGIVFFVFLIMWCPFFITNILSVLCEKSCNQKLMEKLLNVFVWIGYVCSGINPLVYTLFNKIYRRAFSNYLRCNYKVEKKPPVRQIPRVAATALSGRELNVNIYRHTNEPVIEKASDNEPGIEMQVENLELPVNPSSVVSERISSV

human 5-HT2A receptor = human 5-HT2A receptor (Homo sapiens, UniProt P28223); conditions: calcium flux, HEK-293
human 5-HT2B receptor = human 5-HT2B receptor (Homo sapiens, UniProt P41595); conditions: calcium flux, HEK-293
Chain of human 5-HT2B receptor (P41595 whole entry): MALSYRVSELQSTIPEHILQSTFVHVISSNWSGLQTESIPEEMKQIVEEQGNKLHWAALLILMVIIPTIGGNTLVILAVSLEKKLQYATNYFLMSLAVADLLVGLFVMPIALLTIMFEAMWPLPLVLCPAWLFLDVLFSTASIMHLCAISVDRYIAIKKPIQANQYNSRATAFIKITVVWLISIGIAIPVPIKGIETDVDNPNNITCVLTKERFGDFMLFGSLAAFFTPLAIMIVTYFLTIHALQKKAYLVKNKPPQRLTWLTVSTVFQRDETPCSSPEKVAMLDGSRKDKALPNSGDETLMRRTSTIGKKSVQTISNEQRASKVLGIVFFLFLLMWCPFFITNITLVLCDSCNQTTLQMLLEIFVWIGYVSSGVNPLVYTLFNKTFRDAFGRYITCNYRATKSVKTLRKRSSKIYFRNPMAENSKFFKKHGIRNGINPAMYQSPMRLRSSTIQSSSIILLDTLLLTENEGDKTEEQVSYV

Chain of human 5-HT2A receptor (P28223 whole entry): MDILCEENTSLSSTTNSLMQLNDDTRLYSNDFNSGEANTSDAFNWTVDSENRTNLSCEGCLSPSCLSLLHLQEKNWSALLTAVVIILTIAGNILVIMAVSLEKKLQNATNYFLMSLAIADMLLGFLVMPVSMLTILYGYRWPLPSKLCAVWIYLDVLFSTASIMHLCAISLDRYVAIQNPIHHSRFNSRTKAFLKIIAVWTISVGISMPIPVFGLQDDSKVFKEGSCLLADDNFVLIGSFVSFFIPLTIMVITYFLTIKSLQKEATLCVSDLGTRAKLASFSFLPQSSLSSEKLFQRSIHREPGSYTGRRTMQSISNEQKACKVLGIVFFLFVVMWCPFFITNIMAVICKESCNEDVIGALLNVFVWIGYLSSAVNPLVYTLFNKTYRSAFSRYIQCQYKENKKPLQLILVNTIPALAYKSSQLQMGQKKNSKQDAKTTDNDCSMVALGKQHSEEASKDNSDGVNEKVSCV

Row | Structure (SMILES) | agonism at the 5-HT2A receptor (in words) (human 5-HT2A receptor) | agonism at the 5-HT2C receptor (in words) [1] | agonism at the 5-HT2B receptor (in words) (human 5-HT2B receptor) | further results
1 | COc1ccc(-c2ccccc2C)cc1[C@H]1C[C@@H]1CN [Compound 9b] |  |  |  | EC50 [1]: 3.8 µM; Emax [1]: 64%
2 | Cl.NC[C@H]1C[C@@H]1c1ccccc1OCC1CCCCC1 [Compound 11g] | abolished agonist activity | abolished agonist activity | abolished agonist activity | 
3 | CCCCCOc1ccccc1[C@H]1C[C@@H]1CN.Cl [Compound 11d] | abolished agonist activity | abolished agonist activity | abolished agonist activity | 
4 | Cl.NC[C@H]1C[C@@H]1c1ccccc1OCC1CC1 (single isomer, unassigned) [(+)-11e, (+)-trans-[2-(2-cyclopropylmethoxyphenyl)cyclopropyl]methylamine hydrochloride] | activate neither |  | activate neither | agonism at the 5-HT2B receptor (in words) (human 5-HT2B receptor; listed as (+)-trans-[2-(2-cyclopropylmethoxyphenyl)cyclopropyl]methylamine hydrochloride): no detectable agonism
5 | CC(C)COc1ccccc1[C@H]1C[C@@H]1CN.Cl [Compound 11c] |  |  | inactive | 
6 | CCCCOc1ccc(C)cc1[C@H]1C[C@@H]1CN.Cl [Compound 10b] |  | much less potent |  | 
7 | Cl.NC[C@H]1C[C@@H]1c1ccccc1OCC1CC1 (racemic) [Compound 11e, trans-[2-(2-cyclopropylmethoxyphenyl)cyclopropyl]methylamine hydrochloride] |  |  | inactive | 
8 | Cc1ccc(OCC(C)C)c([C@H]2C[C@@H]2CN)c1.Cl [Compound 10a] |  | much less potent |  | 
9 | COc1ccc(-c2ccccc2)cc1[C@H]1C[C@@H]1CN [Compound 9a] |  |  |  | EC50 [1]: 3.47 µM; Emax [1]: 67%
10 | CCCCc1ccc(-c2ccc(OC)c([C@H]3C[C@@H]3CN)c2)cc1.Cl [Compound 9h] | failure | failure | failure | 

Reference: paper PMC3390974 (ACS medicinal chemistry letters, 2011)
